According to article PMC12257544, “Fluorescent Isostere (Fluostere) of the Carboxylate: Design of hDHODH Fluorescent Inhibitors as Proof of Concept” (Journal of Medicinal Chemistry, 2025):
Where “and” joins values, the source holds several entries; their conditions need not be identical. Identical values can stand only once. Like-named read-outs stand apart in the source and are kept apart here.

Key:
[1] = tested on: hCoV-OC43; assay: Antiviral focus-forming reduction assay (FFRA) in HCT-8 cells; assay type: cell-based, human coronavirus OC43
Experimental: After virus adsorption (2 h at 33 °C), the infected cell cultures were incubated in medium containing the corresponding compounds plus 1% (w/v) methylcellulose (Merck) and 1% (v/v) FBS. […] Viral foci were microscopically counted, and the mean plaque counts for each drug concentration was converted in viral titer (PFU/mL).

[2] = Cytotoxicity assay (CellTiter-Glo); assay type: cell-based, human; conditions: human, HCT-8 cells (uninfected), uninfected HCT-8 cells
Experimental: (§1) After 72 h of incubation, the number of viable cells was determined using the CellTiter-Glo Luminescent assay (Promega, Milan, Italy). The cytotoxicity of the tested compounds was expressed as cytotoxic concentration (CC50).

[3] = tested on: HCT-8 cells; assay: Cytotoxicity assay (CellTiter-Glo); assay type: cell-based, human; conditions: uninfected HCT-8 cells, 72 h
Experimental: as §1

[4] = tested on: THP-1 cells; assay: Confocal fluorescence microscopy and Red-MitoTracker co-localization; assay type: cell-based, human; conditions: 10 μM, 24 h
Experimental: Thus, compounds 11a and 14 were subsequently examined in the context of living cells to determine whether they retained their fluorescence profile after entry into target cells. First, both compounds were incubated for 24 h with THP-1 cells at a concentration of 10 μM. After washing with PBS buffer, cells were analyzed under confocal microscopy using an appropriate laser stimulation (λex: 405 nm, λem: […]) to excite the molecules.
Co-localization experiments were performed to examine whether compound 11a may reach the cellular compartment where hDHODH is located. For this, a specific mitochondrial stain marker in the two cell lines in which the biological activities of 11a were observed, namely THP-1 and HCT-8 cells, was used. The compound was therefore incubated with THP-1 cells (Figure ) or HTC-8 cells (Figure ) at 37 °C for 24 h. Then, cells were stained with Red-MitoTracker (a specific fluorescent probe for mitochondrial targeting) for 30 min at 37 °C.
For fluorescence analysis, 10 μM of target compounds were incubated with THP-1 for 24 h. After washing the cells with a PBS buffer solution, they were analyzed under confocal microscopy imaging technique using the appropriate laser to excite the molecule. For the colocalization experiments, HCT-8 cells (55,000 cells/well) were plated on μ-Slide 8 well high glass bottom (IBIDI, Gräfelfing, Germany) and treated for 24 h with 10 μM of 11a at 37 °C. Then, cells were stained with MitoTracker Red CMXRos (ThermoFischer, Carlsbad, CA, USA) (1:4000) for 30′ at 37 °C and after washing with PBS buffer solution, cells were visualized with a Leica TCS SP5 multiphoton-inverted confocal microscope equipped with LAS AF matrix software. Live cells were imaged using an HCX PL APO 63×/1.4 NA oil immersion objective. Images were collected with excitation of ligand 11a at λex = 405 nm and emission at λem = 500 nm, Red-MitoTracker at λex = 581 nm and emission at λem = 605 nm.

[5] = Photophysical characterization (absorption, emission, QY, lifetime); assay type: physicochemical
Experimental: UV–Vis absorption spectra were recorded on a Cary60 spectrometer. Photoemission spectra, luminescence lifetimes, and quantum yields were acquired with a HORIBA Jobin Yvon IBH Fluorolog-TCSPC spectrofluorometer equipped with a Quanta-φ integrating sphere. […] Emission-decay data were collected in 2048 channels to 10000 counts in the peak channel. IRF was measures using colloidal silica suspension in H2O to scatter light. Data were analyzed with the software DAS6 (TCSPC decay-analysis software) using a nonlinear least-squares method to fit of the decay to a sum of exponentials. The value of χ^2, residuals and the autocorrelation function (Durbin-Watson parameter) were used to determine the quality of the fit. For measurements in the presence of hDHODH, 11a was incubated, at 1 μM concentration in TRIS Buffer 0.1 mM (pH 8) with 0.1% DMSO, alone or with different concentrations of recombinant protein ranging from 31.5 to 504 nM concentration. After 5 min incubation UV–Vis absorption spectra were recorded on a Cary60 spectrophotometer and photoemission spectra were acquired with a HORIBA Jobin Yvon IBH Fluorolog-TCSPC spectrofluorometer with excitation λ of 366 nm and maximum of emission at 500 nm; a.u. data were analyzed with GraphPad Prism using One Site – Specific Binding equation.

[6] = tested on: unrelated GST-conjugated-protein; assay: Fluorescence control with an unrelated GST-conjugated protein; assay type: binding; conditions: fixed amount of compound, increasing protein concentration
Experimental: Because the isolated hDHODH used for the previous measurements, and in inhibition enzymatic assay, is the GST-tagged protein, we decided to confirm that the observed fluorescence enhancement resulted from specific binding of inhibitor 11a to the target protein and not from nonspecific interactions with the GST portion.
Apoptosis test rescue with uridine:
Figure S4. A) Analysis of the apoptotic rate induced by compound 11a, on THP-1 cell line (n = 3) with or without exogenous uridine at 100 µM. Compounds were utilized at 1 µM; apoptotic was evaluated after 3 days of treatment. DMSO: dimethyl sulfoxide. Cpd: compound. Ur: uridine. Statistical significance: Student’s t test: **p<0.01. B) Representative Annexin V-FITC/PI flow cytometry dot plots of THP-1 cells after 3 days of treatment in presence of vehicle (left), compound 11a (middle), compound 11a and uridine 100 µM. Data are representative of 3 independent experiments.
Figure S5. Fluorescence-based analysis of the potential contribution of GST-tag to the emission restoration of compound 11a. […]
increasing concentration versus a fixed amount of compound 11a. […]
show protein-dependent fluorescence restoration. […]

[7] = Cytotoxicity assay (CellTiter-Glo); assay type: cell-based; conditions: human, MRC-5 cells; 72 h incubation; read-out: MRC-5 CC50 (C.L. 95 %)
Experimental: as §1

[8] = tested on: THP1 cells; assay: Annexin V apoptosis assay; assay type: cell-based, human
Experimental: After 3 days of culture, the apoptotic assay was performed using the Annexin V-FITC Kit (Miltenyi Biotec, Italy), according to the manufacturer's instructions. The apoptotic cells were acquired on […] and analyzed using Kaluza software version 2.1 (Beckman Coulter, Fullerton, CA).

For `Oc1nn2ccccc2c1/C=C/c1c(F)c(F)c(-c2ccccc2)c(F)c1F` [Compound 11a, (E)-3-(2-(2,3,5,6-Tetrafluoro-[1,1’-biphenyl]-4-yl)vinyl)pyrazolo[1,5-a]pyridin-2-ol], the EC50 ([1]; Betacoronavirus 1, OC43, HCT-8, 72 h, read-out: EC50, concentration inhibiting 50% of virus replication, hCoV-OC43, FFRA in HCT-8 cells, 72 h p.i., full treatment) was 2.3 ± 0.5 µM, the EC90 ([1]; Betacoronavirus 1, OC43, HCT-8, 72 h, read-out: EC90, concentration inhibiting 90% of virus replication) was 23.3 ± 0.4 µM and the “SI, Selectivity Index (ratio of CC50 to EC50)” value ([1]; HCT-8 CC50 / hCoV-OC43 EC50) was 131. The CC50 at 72 h [2] was 301 ± 9 µM, the CC50 [3] was 301 ± 8.97 µM and the intracellular localization ([4]; THP-1) was “localize in the cytosol”. The “fluorescence in living cells” value ([4]; THP-1, λex 405 nm) was “recovered a strong fluorescence”, the “co-localization with Red-MitoTracker” value ([4]; THP-1 cells) was “localize into mitochondria” and the “emission in PBS solution” value ([5]; PBS, polar protic solvent) was “completely quenched”. The “emission in TRIS buffer” value ([5]; TRIS buffer (pH 8), conditions of the enzymatic assay, no protein) was “absence of emission”, the Lifetime ([5]; in ACN) was <1 ns and the “QY (luminescence quantum yield)” value ([5]; in ACN) was 0.12. The Stokes shift ([5]; in ACN) was 4174 cm^–1, the λabs ([5]; in ACN) was 442 nm and the λem ([5]; in ACN) was 535 nm and 542 nm. For the same compound, the “fluorescence in the presence of an unrelated GST-conjugated protein” value [6] was “no restoration of fluorescence”, the CC50 at 72 h [7] was 7 µM and the EC50 ([8]; Homo sapiens, THP-1, 72 h, 3 days of culture, Annexin V-FITC, read-out: Apoptosis EC50 THP1 (C.L. 95 %)) was 0.693 µM. For the same compound, the “antileukemic activity relative to MEDS433” value ([8]; lower than MEDS433, THP1 apoptosis) was ~10 fold and the “pro-apoptotic activity after adding exogenous uridine” value ([8]; uridine 100 μM, compound 1 µM, THP-1, 3 days) was “completely reversed”.
